According to ChEMBL document CHEMBL4257578, “6'-Fluoro-3-deazaneplanocin: Synthesis and antiviral properties, including Ebola” (Bioorg Med Chem Lett, 2018):
The source made the active and inactive calls. The calls are words filed in the database; no cut-off is given here.

Legend:
[1] = Selectivity index, ratio of CC50 for African green monkey Vero 76 cells to EC50 for measles virus; format: toxicity; conditions: read-out: Ratio CC50/EC50
Human betaherpesvirus 5 = test: Antiviral activity against Human cytomegalovirus infected in human HFF cells; format: functional, organism-based
Pichinde virus = test: Antiviral activity against Pichinde virus infected in African green monkey Vero; format: functional, organism-based
Tacaribe virus = test: Antiviral activity against Tacaribe virus infected in African green monkey Vero cells; format: functional, organism-based; conditions: Mammarenavirus tacaribeense
Hepatitis B virus = test: Antiviral activity against Hepatitis B virus infected in human HepG2.2.15 cells; format: functional, organism-based
Poliovirus 1 = test: Antiviral activity against Human poliovirus 1 infected in African green monkey Vero 76 cells; format: functional, organism-based
Punta Toro virus = test: Antiviral activity against Punta Toro virus infected in African green monkey Vero 76 cells; format: functional, organism-based
Ebolavirus [2] = test: Antiviral activity against Ebolavirus infected in African green monkey Vero cells; format: functional, cell-based; conditions: Orthoebolavirus
[3] = Selectivity index, ratio of CC50 for African green monkey Vero cells to EC50 for Ebolavirus; format: toxicity; conditions: read-out: Ratio CC50/EC50
[4] = tested on: Japanese encephalitis virus; test: Antiviral activity against Japanese […] encephalitis virus infected in African green monkey Vero 76 cells; format: functional, organism-based
Influenza A virus = test: Antiviral activity against Influenza A virus (H1N1) infected in MDCK cells; format: functional, organism-based
Norovirus = test: Antiviral activity against Norovirus infected in human HG23 cells; format: functional, organism-based
Yellow fever virus = test: Antiviral activity against Yellow fever virus infected in African green monkey Vero cells; format: functional, organism-based
[5] = Cytotoxicity against African green monkey Vero 76 cells assessed as reduction in cell viability; format: cell-based; conditions: chlorocebus sabaeus
[6] = biological target: AdoHcyase_NAD domain-containing protein (Oryctolagus cuniculus, UniProt G1SVH0); test: Inhibition of SAHase from rabbit erythrocytes using S-adenosyl-L-homocysteine as substrate preincubated for 5 mins followed by substrate addition and measured after 1 hr by Measure-iTTM thiol quantitation reagent based assay
Rift Valley fever virus = test: Antiviral activity against Rift Valley fever virus infected in African green monkey Vero 76 cells; format: functional, organism-based
[7] = tested on: Venezuelan equine encephalitis virus; test: Antiviral activity against Venezuelan equine encephalitis virus infected in African green monkey Vero 76 cells; format: functional, organism-based
Chikungunya virus = test: Antiviral activity against Chikungunya virus infected in African green monkey Vero 76 cells; format: functional, organism-based
[8] = Cytotoxicity against African green monkey Vero cells assessed as reduction in cell viability; format: cell-based; conditions: chlorocebus sabaeus
West Nile virus = test: Antiviral activity against West Nile virus infected in African green monkey Vero 76 cells; format: functional, organism-based
Human adenovirus 5 = test: Antiviral activity against Human adenovirus 5 infected in human A549 cells; format: functional, organism-based
Usutu virus = test: Antiviral activity against Usutu virus infected in African green monkey Vero 76 cells; format: functional, organism-based
[9] = Cytotoxicity against MDCK cells assessed as reduction in cell viability; format: cell-based, Canis lupus familiaris; conditions: dog
dengue virus type 2 = test: Antiviral activity against Dengue virus 2 infected in African green monkey Vero 76 cells; format: functional, organism-based
[10] = Selectivity index, ratio of CC50 for African green monkey Vero cells to EC50 for Pichinde virus; format: toxicity; conditions: read-out: Ratio CC50/EC50
[11] = Selectivity index, ratio of CC50 for MDCK cells to EC50 for Influenza A virus (H1N1); format: toxicity; conditions: dog, read-out: Ratio CC50/EC50
Measles morbillivirus = test: Antiviral activity against Measles virus infected in African green monkey Vero 76 cells; format: functional, organism-based
[12] = Selectivity index, ratio of CC50 for African green monkey Vero E6 cells to EC50 for Ebolavirus subtype Zaire; format: toxicity, Vero C1008; conditions: read-out: Ratio CC50/EC50
Ebolavirus [13] = test: Antiviral activity against Ebolavirus subtype Zaire infected in African green monkey Vero E6 cells; format: functional, Ebola virus - Zaire (1995); conditions: Orthoebolavirus, Vero C1008
[14] = Cytotoxicity against African green monkey Vero E6 cells assessed as reduction in cell viability; format: cell-based; conditions: chlorocebus sabaeus, Vero E6 cells (Vero C1008)

Sequence of AdoHcyase_NAD domain-containing protein (G1SVH0 whole entry, the tested form may be a part): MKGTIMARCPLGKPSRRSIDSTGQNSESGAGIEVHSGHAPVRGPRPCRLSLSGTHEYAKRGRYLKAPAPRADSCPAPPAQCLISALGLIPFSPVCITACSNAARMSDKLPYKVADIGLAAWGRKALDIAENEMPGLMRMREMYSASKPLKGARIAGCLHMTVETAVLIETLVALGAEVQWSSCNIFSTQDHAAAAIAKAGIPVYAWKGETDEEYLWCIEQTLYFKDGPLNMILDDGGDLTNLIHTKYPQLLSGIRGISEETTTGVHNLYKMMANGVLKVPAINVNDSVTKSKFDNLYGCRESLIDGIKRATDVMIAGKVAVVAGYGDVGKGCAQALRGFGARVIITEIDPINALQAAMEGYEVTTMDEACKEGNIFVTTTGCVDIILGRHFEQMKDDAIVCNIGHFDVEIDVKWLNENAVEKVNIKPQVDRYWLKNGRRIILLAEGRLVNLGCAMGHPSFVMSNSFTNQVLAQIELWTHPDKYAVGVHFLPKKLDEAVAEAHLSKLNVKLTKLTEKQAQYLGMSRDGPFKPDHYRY

Nc1cccc2c1ncn2[C@@H]1C(F)=C(CO)[C@@H](O)[C@H]1O
selectivity ratio [1]: > 320 | Activity (Human betaherpesvirus 5): inactive | EC50 (Pichinde virus): 57.6 µM | Activity (Tacaribe virus): inactive | Activity (Hepatitis B virus): inactive | Activity (Poliovirus 1): inactive | Activity (Punta Toro virus): inactive | EC50 (Ebolavirus [2]): < 0.36 µM | selectivity ratio [3]: > 347 | Activity [4]: inactive | EC50 (Influenza A virus): 20.2 µM | Activity (Norovirus): inactive | Activity (Yellow fever virus): inactive | CC50 [5]: 115 µM | IC50 [6]: 0.00869 µM | Activity (Rift Valley fever virus): inactive | Activity [7]: inactive | Activity (Chikungunya virus): inactive | CC50 [8]: 125 to 360 µM | Activity (West Nile virus): inactive | Activity (Human adenovirus 5): inactive | Activity (Usutu virus): inactive | CC50 [9]: 133 µM | Activity (dengue virus type 2): inactive | selectivity ratio [10]: > 6.3 | selectivity ratio [11]: 6.6 | EC50 (Measles morbillivirus): < 0.36 µM

Nc1ccnc2c1ncn2[C@@H]1C=C(CO)[C@@H](O)[C@H]1O
selectivity ratio [12]: 15 | EC50 (Ebolavirus [13]): 4 µM | CC50 [14]: 60 µM

Nc1cccc2c1ncn2[C@@H]1C=C(CO)[C@@H](O)[C@H]1O
selectivity ratio [12]: > 850 | EC50 (Ebolavirus [13]): 2 µM | CC50 [14]: > 1700 µM
